We go through nine compounds from patent US20250154198A1, “PEPTIDE INHIBITORS OF INTERLEUKIN-23 RECEPTOR” (Zealand Pharma A/S, priority 2021, published 2025).

For test [1], the target named is T1, human IL-23R (Homo sapiens, UniProt Q5VWK5).
T1 construct: UniProtKB—Q5VWK5, amino acids 22-629; secretion signal of the plasmid (Promega N1371); expressed in transfected cells
T1 sequence (Q5VWK5 22-629): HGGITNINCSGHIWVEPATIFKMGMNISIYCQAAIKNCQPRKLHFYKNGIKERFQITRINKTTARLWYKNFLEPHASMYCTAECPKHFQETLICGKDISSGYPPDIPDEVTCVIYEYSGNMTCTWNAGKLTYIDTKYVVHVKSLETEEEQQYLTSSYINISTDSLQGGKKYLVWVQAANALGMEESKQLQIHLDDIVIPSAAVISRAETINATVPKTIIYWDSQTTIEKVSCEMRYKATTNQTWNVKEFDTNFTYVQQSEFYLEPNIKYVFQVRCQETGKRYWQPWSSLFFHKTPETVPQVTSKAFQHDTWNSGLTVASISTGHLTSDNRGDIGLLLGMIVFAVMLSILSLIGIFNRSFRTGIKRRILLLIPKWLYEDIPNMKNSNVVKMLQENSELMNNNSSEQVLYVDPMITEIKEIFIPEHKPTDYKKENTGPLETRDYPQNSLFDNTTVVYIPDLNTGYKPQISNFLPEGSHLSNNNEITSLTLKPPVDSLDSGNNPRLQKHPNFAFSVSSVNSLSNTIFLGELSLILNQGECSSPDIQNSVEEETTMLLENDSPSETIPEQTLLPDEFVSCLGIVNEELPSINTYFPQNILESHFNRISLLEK
The test can be described thus: Binding assay (NanoBRET displacement of fluorophore-labelled reference compound) for estimating binding affinity to human IL-23R.

Test [2] has as its target IL-23 mediated phospho-STAT3 formation in DB cells (Homo sapiens, UniProt Q5VWK5). Kind of test: Functional inhibition of IL-23 mediated STAT3 signalling (phospho-STAT3 Tyr705 MSD) in DB cells. It counts as cell-based. The conditions noted are these: DB cells, read-out: IC50 (pSTAT3). From the text: Functional Inhibition of IL-23 Mediated STAT3 Signalling by Compounds
Upon binding of IL-23, the IL-23R forms a heterodimer signalling complex together with IL-12R β1, which through the JAK2/STAT3 pathway promotes phosphorylation of STAT3 to form phospho-STAT3.
The assay was used to quantify the functional antagonism of a compound and to rank order the inhibitor compounds according to their potency. For compounds tested in this assay, the response was normalized relative to control values to calculate the IC50 and maximal inhibitory response from a concentration response curve of the compound in presence of a fixed concentration of human IL-23.
The assay procedure was as follows. […] Following preincubation of the DB cells with inhibitor for 15 min in a cell incubator (37° C., 5% CO2), 20 μL of the prepared 3× the EC80 of hIL-23 solution was added to each well and incubated for 90 min in a cell incubator (37° C., 5% CO2). For some wells buffer only or IL-23 only corresponding to the EC80 was added to obtain readouts needed for normalization. To terminate the assay, the plate was spun at 1000 G for 5 min to pellet cells, the supernatant removed using an 8-channel manual pipette, and then added 50 μL/well Complete Lysis Buffer from the MSD STAT3 kit (Cat #K150SVD, Mesoscale) to the cell pellet. To completely lyse cells to release phospho-STAT3 for detection, the plate was shaken for 10 min at room temperature (500 rpm) sealed with aluminum foil and placed at −80° C. for a minimum of 15 min. Detection of the phospho-STAT3 level in the cell lysate from the individual wells was determined using the MSD STAT3 kit (Cat #K150SVD, Mesoscale) and read on a Meso QuickPlex SQ 120 plate reader (Mesoscale).
For data analysis raw data counts from the Meso QuickPlex SQ 120 plate reader were normalized relative to the response by the EC80 of hIL-23 alone (no compound added) and the buffer level. Compound potency (IC50) and maximal inhibitory response (% inhibition) were estimated by computer-aided curve fitting using a 4-parameter logistic (4PL) non-linear model.

Where [3] appears, read: Table 3-1, read-out: Ki hIL-23R.

Where two headings read alike, the source gives them in different places. Where a SMILES comes first, the peptide text is derived from it.

With `CC(C)C[C@@H]1NC(=O)[C@H](Cc2c[nH]c3ccccc23)NC(=O)[C@H](Cc2c[nH]c3ccccc23)NC(=O)[C@@H]2CSCC(=O)CSC[C@H](NC(=O)[C@H](CO)NC(=O)[C@@H](NC(=O)[C@@H](N)CC(=O)O)CCC(=O)NCCCC[C@@H](C(=O)N[C@@H](CCCNC(=N)N)C(N)=O)NC1=O)C(=O)N[C@@H](Cc1c[nH]c3ccccc13)C(=O)N[C@@H](CCC(N)=O)C(=O)N2` [Compound 4, H-DE(1c)SC(2a)WQC(2a)WWLK(1c)R-[NH2]] (HELM PEPTIDE1{D.E.S.C.W.Q.C.W.W.L.K.R.[am]}|CHEM1{[O=C(C[*:1])C[*:2]]}$PEPTIDE1,PEPTIDE1,2:R3-11:R3|PEPTIDE1,CHEM1,4:R3-1:R1|PEPTIDE1,CHEM1,7:R3-1:R2$$$V2.0), in test [1] (Compound 7 (amide closer to position 11) versus Compound 4 (closer to position 2), Table 2-3b), the “potency depending on location of the amide bond in the [2,11] lactam bridge (in words)” value was “less active”. In addition, the IC50 in test [2] (Table 2-3b), in test [2] (Table 2-4b) and in test [2] (Table 2-5b) was greater than 1 µM throughout.
Consider `CC(C)C[C@@H]1NC(=O)[C@H](Cc2c[nH]c3ccccc23)NC(=O)[C@H](Cc2c[nH]c3ccccc23)NC(=O)[C@@H]2CCCCNC(=O)CC[C@H](NC(=O)[C@H](CO)NC(=O)[C@@H](NC(=O)[C@@H](N)CC(=O)O)CSCC(=O)CSC[C@@H](C(=O)N[C@@H](CCCNC(=N)N)C(N)=O)NC1=O)C(=O)N[C@@H](Cc1c[nH]c3ccccc13)C(=O)N[C@@H](CCC(N)=O)C(=O)N2` [Compound 5, H-DC(1a)SE(2c)WQK(2c)WWLC(1a)R-[NH2]] (HELM PEPTIDE1{D.C.S.E.W.Q.K.W.W.L.C.R.[am]}|CHEM1{[O=C(C[*:1])C[*:2]]}$PEPTIDE1,CHEM1,2:R3-1:R1|PEPTIDE1,CHEM1,11:R3-1:R2|PEPTIDE1,PEPTIDE1,4:R3-7:R3$$$V2.0), for which the Ki (commonly a measure of affinity in units of concentration, obtained from inhibition or displacement) in test [1] (setting [3]) was greater than 1 µM. For the same compound, the IC50 (as a rule, the point on the concentration scale where inhibition reaches its midpoint) in test [2] (Table 3-1) was greater than 1 µM.
For `CC(C)C[C@@H]1NC(=O)[C@H](Cc2c[nH]c3ccccc23)NC(=O)[C@H](Cc2c[nH]c3ccccc23)NC(=O)[C@@H]2CSCC(=O)CSC[C@H](NC(=O)[C@H](CO)NC(=O)[C@H](CC(=O)O)NC(=O)[C@H](CCCNC(=N)N)NC1=O)C(=O)N[C@@H](Cc1c[nH]c3ccccc13)C(=O)N[C@@H](CCC(N)=O)C(=O)N2` [Compound 6, D(1c)*SC(2a)WQC(2a)WWLR(1c)*] (HELM PEPTIDE1{C.W.Q.C.W.W.L.R.D.S}|CHEM1{[O=C(C[*:1])C[*:2]]}$PEPTIDE1,CHEM1,1:R3-1:R1|PEPTIDE1,CHEM1,4:R3-1:R2|PEPTIDE1,PEPTIDE1,1:R1-10:R2$$$V2.0), the Ki in test [1] (setting [3]) is greater than 1 µM. In test [2] (Table 3-1), the IC50 is greater than 1 µM.
With `CC(C)C[C@@H]1NC(=O)[C@H](Cc2c[nH]c3ccccc23)NC(=O)[C@H](Cc2c[nH]c3ccccc23)NC(=O)[C@@H]2CSCC(=O)CSC[C@H](NC(=O)[C@H](CO)NC(=O)[C@@H](NC(=O)[C@@H](N)CC(=O)O)CCC(=O)NCC[C@@H](C(=O)N[C@@H](CCCNC(=N)N)C(N)=O)NC1=O)C(=O)N[C@@H](Cc1c[nH]c3ccccc13)C(=O)N[C@@H](CCC(N)=O)C(=O)N2` [Compound 9, H-DE(1c)SC(2a)WQC(2a)WWL[Dab](1c)R-[NH2]] (HELM PEPTIDE1{D.E.S.C.W.Q.C.W.W.L.[Dab].R.[am]}|CHEM1{[O=C(C[*:1])C[*:2]]}$PEPTIDE1,PEPTIDE1,2:R3-11:R3|PEPTIDE1,CHEM1,4:R3-1:R1|PEPTIDE1,CHEM1,7:R3-1:R2$$$V2.0), in test [1] (setting [3]), the Ki is greater than 1 µM. Also, the IC50 in test [2] (Table 3-1) is greater than 1 µM.
As for `CC(=O)N[C@H]1CCC(=O)NCCCC[C@@H](C(=O)N[C@@H](CCCNC(=N)N)C(N)=O)NC(=O)[C@H](CC(C)C)NC(=O)[C@H](Cc2c[nH]c3ccccc23)NC(=O)[C@H](Cc2c[nH]c3ccccc23)NC(=O)[C@@H]2CSCC(=O)CSC[C@H](NC(=O)[C@H](CO)NC1=O)C(=O)N[C@@H](Cc1c[nH]c3ccccc13)C(=O)N[C@@H](CCC(N)=O)C(=O)N2` [Compound 10, [Ac]-E(1c)SC(2a)WQC(2a)WWLK(1c)R-[NH2]] (HELM PEPTIDE1{[ac].E.S.C.W.Q.C.W.W.L.K.R.[am]}|CHEM1{[O=C(C[*:1])C[*:2]]}$PEPTIDE1,PEPTIDE1,2:R3-11:R3|PEPTIDE1,CHEM1,4:R3-1:R1|PEPTIDE1,CHEM1,7:R3-1:R2$$$V2.0), the inhibitory constant (Ki) in test [1] (Table 2-4b, read-out: Ki IL-23R) is 0.101 µM. Also, the IC50 in test [2] (Table 2-4b) is 0.617 µM.
Regarding `CC(=O)N[C@@H](CC(=O)O)C(=O)N[C@H]1CCC(=O)NCCCC[C@@H](C(=O)N[C@@H](CCCNC(=N)N)C(N)=O)NC(=O)[C@H](CC(C)C)NC(=O)[C@H](Cc2c[nH]c3ccccc23)NC(=O)[C@H](Cc2c[nH]c3ccccc23)NC(=O)[C@@H]2CSCC(=O)CSC[C@H](NC(=O)[C@H](CO)NC1=O)C(=O)N[C@@H](C)C(=O)N[C@@H](CCC(N)=O)C(=O)N2` [Compound 13, [Ac]-DE(1c)SC(2a)AQC(2a)WWLK(1c)R-[NH2]] (HELM PEPTIDE1{[ac].D.E.S.C.A.Q.C.W.W.L.K.R.[am]}|CHEM1{[O=C(C[*:1])C[*:2]]}$PEPTIDE1,PEPTIDE1,3:R3-12:R3|PEPTIDE1,CHEM1,5:R3-1:R1|PEPTIDE1,CHEM1,8:R3-1:R2$$$V2.0), the Ki in test [1] (setting [3]) was greater than 1 µM. The half-inhibitory concentration (IC50) in test [2] (Table 3-1) is greater than 1 µM.
Take `CC(=O)N[C@@H](CC(=O)O)C(=O)N[C@H]1CCC(=O)NCCCC[C@@H](C(=O)N[C@@H](CCCNC(=N)N)C(N)=O)NC(=O)[C@H](CC(C)C)NC(=O)[C@H](Cc2c[nH]c3ccccc23)NC(=O)[C@H](C)NC(=O)[C@@H]2CSCC(=O)CSC[C@H](NC(=O)[C@H](CO)NC1=O)C(=O)N[C@@H](Cc1c[nH]c3ccccc13)C(=O)N[C@@H](CCC(N)=O)C(=O)N2` [Compound 14, [Ac]-DE(1c)SC(2a)WQC(2a)AWLK(1c)R-[NH2]] (HELM PEPTIDE1{[ac].D.E.S.C.W.Q.C.A.W.L.K.R.[am]}|CHEM1{[O=C(C[*:1])C[*:2]]}$PEPTIDE1,PEPTIDE1,3:R3-12:R3|PEPTIDE1,CHEM1,5:R3-1:R1|PEPTIDE1,CHEM1,8:R3-1:R2$$$V2.0): in test [1] (setting [3]), the inhibitory constant (Ki) is greater than 1 µM. Also, the concentration for half-maximal inhibition (IC50) in test [2] (Table 3-1) is greater than 1 µM.
Take `CC(=O)N[C@@H](CC(=O)O)C(=O)N[C@H]1CCC(=O)NCCCC[C@@H](C(=O)N[C@@H](CCCNC(=N)N)C(N)=O)NC(=O)[C@H](CC(C)C)NC(=O)[C@H](C)NC(=O)[C@H](Cc2c[nH]c3ccccc23)NC(=O)[C@@H]2CSCC(=O)CSC[C@H](NC(=O)[C@H](CO)NC1=O)C(=O)N[C@@H](Cc1c[nH]c3ccccc13)C(=O)N[C@@H](CCC(N)=O)C(=O)N2` [Compound 15, [Ac]-DE(1c)SC(2a)WQC(2a)WALK(1c)R-[NH2]] (HELM PEPTIDE1{[ac].D.E.S.C.W.Q.C.W.A.L.K.R.[am]}|CHEM1{[O=C(C[*:1])C[*:2]]}$PEPTIDE1,PEPTIDE1,3:R3-12:R3|PEPTIDE1,CHEM1,5:R3-1:R1|PEPTIDE1,CHEM1,8:R3-1:R2$$$V2.0): the Ki in test [1] (setting [3]) is greater than 1 µM. For the same compound, the IC50 in test [2] (Table 3-1) is greater than 1 µM.
Take `CC(=O)N[C@@H](CC(=O)O)C(=O)N[C@H]1CCC(=O)NCCCC[C@@H](C(=O)N[C@@H](CCCNC(=N)N)C(N)=O)NC(=O)[C@H](CC(C)C)NC(=O)[C@H](Cc2c[nH]c3ccccc23)NC(=O)[C@H](Cc2c[nH]c3ccccc23)NC(=O)[C@@H]2CSCC(=O)CSC[C@H](NC(=O)[C@H](CO)NC1=O)C(=O)N[C@@H](Cc1c[nH]c3c(C)cccc13)C(=O)N[C@@H](CCC(N)=O)C(=O)N2` [Compound 16, [Ac]-DE(1c)SC(2a)[7-Me-Trp]QC(2a)WWLK(1c)R-[NH2]] (HELM PEPTIDE1{[ac].D.E.S.C.[Cc1cccc2c(C[C@H](N[*:1])C(=O)[*:2])c[nH]c12].Q.C.W.W.L.K.R.[am]}|CHEM1{[O=C(C[*:1])C[*:2]]}$PEPTIDE1,PEPTIDE1,3:R3-12:R3|PEPTIDE1,CHEM1,5:R3-1:R1|PEPTIDE1,CHEM1,8:R3-1:R2$$$V2.0): the Ki in test [1] (Table 2-5b, read-out: Ki IL-23R) is 0.0954 µM. Also, the IC50 in test [2] (Table 2-5b) came out at 0.461 µM.
